Data taken from the supplement of paper PMC10307832.

Experiments:
Test in all cases: relative viability (nuclei count vs DMSO), 5 days (fraction); higher = more cells survive
IMD-0354 + Foretinib = compound: O=C(Nc1cc(C(F)(F)F)cc(C(F)(F)F)c1)c1cc(Cl)ccc1O [IMD-0354] + COc1cc2c(Oc3ccc(NC(=O)C4(C(=O)Nc5ccc(F)cc5)CC4)cc3F)ccnc2cc1OCCCN1CCOCC1 [Foretinib] (partner 0.25 µM)
How it was run: (§1)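 Values are medians from duplicate plates. Each reflects relative viability, defined as the nuclei count of treated wells over that of vehicle wells. Lung cancer cell lines in 1536-well plates were pin-tool dosed one day after seeding with one drug alone or with a fixed anchor-drug dose plus five library-drug doses (not always all listed) in √10 steps, then fixed, stained and imaged at 4× after 5 days.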

CX-5461 + Dasatinib = compound: Cc1cnc(CNC(=O)c2c(=O)c3ccc(N4CCCN(C)CC4)nc3n3c2sc2ccccc23)cn1 [CX-5461] + Cc1nc(Nc2ncc(C(=O)Nc3c(C)cccc3Cl)s2)cc(N2CCN(CCO)CC2)n1 [Dasatinib] (partner 0.075 µM)
How it was run: as §1

IMD-0354 + Phenformin = compound: O=C(Nc1cc(C(F)(F)F)cc(C(F)(F)F)c1)c1cc(Cl)ccc1O [IMD-0354] + N=C(N)NC(=N)NCCc1ccccc1 [Phenformin] (partner 250 µM)
How it was run: as §1

CX-5461 + Alpelisib = compound: Cc1cnc(CNC(=O)c2c(=O)c3ccc(N4CCCN(C)CC4)nc3n3c2sc2ccccc23)cn1 [CX-5461] + Cc1nc(NC(=O)N2CCC[C@H]2C(N)=O)sc1-c1ccnc(C(C)(C)C(F)(F)F)c1 [Alpelisib] (partner 2 µM)
How it was run: as §1

| Cell Line | relative viability (IMD-0354 + Foretinib; first compound 0.04 µM) | relative viability (IMD-0354 + Foretinib; first compound 0.1265 µM) | relative viability (IMD-0354 + Foretinib; first compound 0.4 µM) | relative viability (IMD-0354 + Foretinib; first compound 1.265 µM) | relative viability (IMD-0354 + Foretinib; first compound 4 µM) | relative viability (CX-5461 + Dasatinib; first compound 0.01 µM) | relative viability (CX-5461 + Dasatinib; first compound 0.03162 µM) | relative viability (CX-5461 + Dasatinib; first compound 0.1 µM) | relative viability (CX-5461 + Dasatinib; first compound 0.3162 µM) | relative viability (CX-5461 + Dasatinib; first compound 1 µM) | relative viability (IMD-0354 + Phenformin; first compound 0.04 µM) | relative viability (IMD-0354 + Phenformin; first compound 0.1265 µM) | relative viability (IMD-0354 + Phenformin; first compound 0.4 µM) | relative viability (IMD-0354 + Phenformin; first compound 1.265 µM) | relative viability (IMD-0354 + Phenformin; first compound 4 µM) | relative viability (CX-5461 + Alpelisib; first compound 0.01 µM) | relative viability (CX-5461 + Alpelisib; first compound 0.03162 µM) | relative viability (CX-5461 + Alpelisib; first compound 0.1 µM) | relative viability (CX-5461 + Alpelisib; first compound 0.3162 µM) | relative viability (CX-5461 + Alpelisib; first compound 1 µM) |
| --- | --- | --- | --- | --- | --- | --- | --- | --- | --- | --- | --- | --- | --- | --- | --- | --- | --- | --- | --- | --- |
| 201T | 1.18 | 1.18 | 1.05 | 0.235 | 0.178 | 0.652 | 0.555 | 0.537 | 0.542 | 0.477 | 0.524 | 0.465 | 0.322 | 0.286 | 0.303 | 1.01 | 1.05 | 1.01 | 1.03 | 1 |
| A549 | 0.986 | 1.02 | 0.481 | 0.0713 | 0.0502 | – | – | – | – | – | 0.23 | 0.106 | 0.0873 | 0.03 | 0.0515 | 0.771 | 0.561 | – | 0.508 | 0.0561 |
| A-427 | 0.972 | 1.08 | 0.594 | 0.655 | 0.168 | 0.811 | 0.8 | 0.758 | – | 0.539 | 0.379 | 0.209 | 0.247 | 0.105 | 0.112 | 1.08 | 1.16 | 1.17 | – | 1.06 |
| ABC-1 | 0.876 | 1.12 | 0.854 | 0.37 | 0.29 | 0.697 | 0.582 | 0.45 | 0.384 | 0.449 | 0.227 | 0.207 | 0.224 | 0.197 | 0.194 | 1.12 | 0.916 | – | 1.09 | 0.751 |
| BEN | 0.739 | 0.731 | 0.448 | 0.193 | 0.196 | 0.322 | 0.271 | 0.313 | 0.377 | 0.279 | 0.248 | 0.267 | 0.229 | 0.179 | 0.174 | 1.14 | 1.04 | 1.14 | 1.07 | 0.92 |
| CAL-12T | 1.25 | 0.844 | 0.638 | 0.486 | 0.154 | 0.521 | 0.356 | 0.329 | 0.39 | 0.205 | 0.623 | 0.512 | 0.252 | 0.117 | 0.134 | 1.25 | 1.17 | – | 1.37 | 0.546 |
| COR-L23 | 0.833 | 0.844 | 0.349 | 0.138 | 0.131 | 0.477 | 0.495 | 0.438 | 0.46 | 0.226 | 0.466 | 0.373 | 0.263 | 0.108 | 0.0986 | 0.81 | 0.921 | 0.649 | 0.725 | 0.342 |
| COR-L 105 | 1.25 | 0.808 | 0.67 | 0.932 | 0.296 | 0.3 | 0.356 | 0.299 | 0.325 | 0.255 | 0.659 | 0.462 | 0.39 | 0.183 | 0.211 | 1.14 | 0.942 | 1.26 | 0.851 | 0.414 |
| Calu-6 | 0.941 | 0.829 | 0.579 | 0.172 | 0.101 | – | – | – | – | – | – | – | – | – | – | 0.984 | 1.15 | 0.916 | 1.07 | 0.304 |
| ChaGo-K-1 | 0.998 | 0.875 | 0.747 | 0.531 | 0.258 | 0.57 | 0.57 | 0.575 | 0.469 | 0.253 | 0.584 | 0.544 | 0.318 | 0.225 | 0.199 | – | – | – | – | – |
| EBC-1 | 0.0859 | 0.103 | 0.104 | 0.105 | 0.0891 | – | – | – | – | – | – | – | – | – | – | 0.899 | 0.943 | 0.75 | 0.775 | 0.425 |
| EKVX | 0.974 | 0.975 | 0.714 | 0.0943 | 0.13 | 0.55 | 0.522 | 0.481 | 0.554 | 0.477 | 0.254 | 0.234 | 0.196 | 0.106 | 0.132 | 0.93 | 0.865 | 0.902 | – | 0.883 |
| EMC-BAC-2 | 1.08 | 1 | 0.594 | 0.513 | 0.302 | 0.335 | 0.319 | 0.296 | 0.282 | 0.155 | 0.52 | 0.441 | 0.24 | 0.155 | 0.218 | 0.752 | 0.833 | 0.782 | 0.698 | 0.717 |
| EPLC-272H | 0.761 | 0.61 | 0.512 | 0.269 | 0.0781 | 0.327 | 0.364 | 0.387 | – | 0.412 | 0.34 | 0.199 | 0.304 | 0.0841 | 0.0653 | 0.974 | 1.06 | 0.961 | – | 0.876 |
| H3255 | 0.836 | 1.02 | 0.785 | 0.433 | 0.283 | 0.482 | 0.295 | 0.34 | 0.334 | 0.304 | 0.338 | 0.364 | 0.345 | 0.288 | 0.332 | 0.763 | 0.819 | 0.727 | 0.403 | 0.73 |
| HARA | 1.07 | 0.866 | 0.568 | 0.159 | 0.125 | 0.308 | 0.246 | 0.213 | – | 0.213 | 0.422 | 0.47 | 0.154 | 0.0947 | 0.0925 | 0.926 | 0.84 | 0.865 | 0.73 | 0.799 |
| HCC-15 | 1.03 | 0.891 | 0.636 | 0.178 | 0.152 | 0.673 | 0.666 | 0.655 | 0.617 | 0.229 | 0.466 | 0.37 | 0.188 | 0.0833 | 0.165 | 0.937 | 0.905 | 0.91 | 0.89 | 0.779 |
| HCC-44 | – | – | – | – | – | – | – | – | – | – | 0.241 | 0.32 | 0.193 | 0.139 | 0.105 | 0.752 | 0.991 | 0.839 | 0.827 | 0.753 |
